Data taken from patent US20260248819A1, “MULTI-COMPONENT PHARMACEUTICAL COMPOSITIONS AND KITS CONTAINING NITRIC OXIDE RELEASING COMPOUNDS AND METHODS OF USING SAME” (priority 2022, published 2026).

Tests used:
[1] = test system: M. abscessus strain N0010; experiment: Checkerboard assay, MD3 combined with a second antibiotic (NTM); type: cell-based, Mycobacterium abscessus; details: aerobic
Procedure: (§1) The checkerboard method was performed as follows. MD3 and the second antibiotic were tested at four times (4×) their minimum inhibitory concentration (MIC) alone (see Table 3). Stock solutions of MD3 and the secondary antibiotics were prepared at 4× the final concentration (i.e., 16× the MIC; called the 4× stocks).
(§2) Bacterial cultures were prepared from frozen glycerol stocks stored at −80° C. by streaking on agar plates (see Table 4). Several well-isolated colonies were suspended in IX PBS, then diluted to 1×10^6 CFU/ml in liquid media. The cultures were diluted to 5×10^5 CFU/ml, when added to the antibiotic combinations in the checkerboard assay plate. Because colonies from strains N0010, N0046, and N0124 are difficult to suspend homogenously, they were first sub-cultured in 7H9 liquid media containing Middlebrook ADC supplement and 0.05% Tween-80, then incubated at 37° C. shaking for 3 days. This subculture was used to prepare the 1×10^6 CFU/ml culture.
(§3) To prepare the checkerboard assay plates, phosphate buffered saline (PBS) was added to wells BI through H8 of a 96-well plate. […]
(§4) The FICI was calculated for each well along the growth/no-growth border of the checkerboard assay plate. […]

[2] = test system: M. abscessus strain N0046; experiment: as above; type: cell-based, Mycobacterium abscessus subsp. bolletii; details: aerobic
Procedure: as §1, §2, §3, §4

[3] = test system: M. chimaera N0124; experiment: as above; type: cell-based, Mycobacterium chimaera; details: strain N0124, aerobic
Procedure: as §1, §2, §3, §4

[4] = test system: M. massiliense N0130; experiment: as above; type: cell-based, Mycobacterium massiliense; details: strain N0130, aerobic
Procedure: as §1, §2
(§5) To prepare the checkerboard assay plates, phosphate buffered saline (PBS) was added to wells BI through H8 of a 96-well plate. Next, 200 μl of the 4× second antibiotic stock was added to the empty wells in A1 through A8 of a 96-well plate, then serially diluted 1:1 down the plate using a multichannel pipette, stopping at row G. The final 100 μl from row G was discarded. […] At this step, all wells contain 4× the target concentration of the second antibiotic. Next, 100 μl of the 4× MD3 stock solution was added to wells A1 through H1 and serially diluted 1:1 across the plate to column 7 using a multichannel pipette. The final 100 μl in […] was discarded. […] After this step, all wells contain 2× the target concentrations for both MD3 and the second antibiotic. The wells in column 9 contain media alone, serving as media controls. The wells in column 10 contain media and bacteria, serving as growth controls. Finally, 100 μl of 5×10^5 CFU/ml bacterial culture was added to each well.
The FICI was calculated for each well along the growth/no-growth border of the checkerboard assay plate. If the FICI of any well was greater than 4, antagonism was reported; otherwise, the lowest FICI value was reported. FICI values of ≤0.5 are considered synergistic, values of 0.51 to 1 are additive, and values of greater than 1 to 4 are indifferent. The rationale for this method of analysis is that, if any ratio of MD3:antibiotic is synergistic, then that combination has the potential for synergy, even if other ratios are not synergistic. […] If an experiment was repeated twice and the same classification observed (e.g., synergy observed in both replicates), then the average FICI was reported for that drug combination. […]

[5] = test system: P. aeruginosa strain PAK (N0049); experiment: Checkerboard assay, MD3 combined with a second antibiotic; type: cell-based, Pseudomonas aeruginosa; details: for Lowest FICI, rep 1 / Lowest FICI, rep 2 / Lowest FICI, rep 3: antibiotic combined with MD3
Procedure: To quantify the combined effects of MD3 and a secondary antibiotic, a checkerboard assay was used, which is a two-dimensional, two-agent serial dilution that quantifies the effect of each drug alone and in combination. In patients with underlying pulmonary disease such as bronchiectasis, significant mucus in the lung results in bacterial infections that are primarily microaerobic (little oxygen) or anaerobic (no oxygen). Therefore, combinations of MD3 and six secondary antibiotics were evaluated under both aerobic and anaerobic conditions for a representative organism, Pseudomonas aeruginosa.
as §1
MD3 and secondary antibiotics were tested at 4× their minimum inhibitory concentration (MIC) alone. […] MD3 and antibiotics were tested across a 7-point range of 2-fold concentration, as detailed in Table 3.
as §2, §5
For experiments in which P. aeruginosa was grown under anaerobic conditions, 90 mM KNO3 was added to the CAMHB media, and the checkerboard assay plates were incubated in an anaerobic box containing anaerobic sachets.
The FICI was calculated for each well along the growth/no-growth border of the checkerboard assay plate. If the FICI of any well was greater than 4, antagonism was reported; otherwise, the lowest FICI value was reported. FICI values of ≤0.5 are considered synergistic, values of 0.51 to 1 are additive, and values of greater than 1 to 4 are indifferent. The rationale for this method of analysis is that, if any ratio of MD3:antibiotic is synergistic, then that combination has the potential for synergy, even if other ratios are not synergistic.

[6] = test system: Candida auris (Strain N0220); experiment: Checkerboard assay, MD3 combined with a secondary antifungal; type: cell-based; details: for Interaction (at 24 hours) / Lowest FICI (at 24 hours) / Interaction (at 48 hours) / Lowest FICI (at 48 hours): antifungal combined with MD3
Source text: (§6) To quantify the combined effects of MD3 and a secondary antifungal, a checkerboard assay was used as described above in Example 1. The antibiotics tested in this study included voriconazole, a triazole antifungal that inhibits the growth of the fungi causing the infection; itraconazole, an azole antifungal that inhibits the growth of fungi; and amphotericin B, a polyene antifungal that binds to ergosterol in fungal cell membranes, developing holes in the membrane and allowing cell components to leak out, causing cell death.
(§7) The fungal species used in this study included Aspergillus fumigatus (strain N0219) and Candida auris (Strain N0220). The checkerboard method was performed as described above in Example 1. The effects of the antifungal combinations were classified according to the fractional inhibitory concentration index (FICI) as described above in Example 1 at time points of 24 hours and 48 hours.

[7] = test system: S. aureus strain N0040; experiment: Checkerboard assay, MD3 combined with a second antibiotic; type: cell-based, Staphylococcus aureus; details: aerobic
Procedure: as §1, §2, §5
The FICI was calculated for each well along the growth/no-growth border of the checkerboard assay plate. If the FICI of any well was greater than 4, antagonism was reported; otherwise, the lowest FICI value was reported. FICI values of ≤0.5 are considered synergistic, values of 0.51 to 1 are additive, and values of greater than 1 to 4 are indifferent. The rationale for this method of analysis is that, if any ratio of MD3:antibiotic is synergistic, then that combination has the potential for synergy, even if other ratios are not synergistic. […] If an experiment was repeated twice and the same classification observed (e.g., synergy observed in both replicates), then the average FICI was reported for that drug combination. If the results for two duplicates are discordant in their classification, a third experiment must be conducted and the average FICI from the triplicate experiments was used for final classification.

[8] = test system: Aspergillus fumigatus (strain N0219); experiment: Checkerboard assay, MD3 combined with a secondary antifungal; type: cell-based
Source text: as §6, §7

[9] = test system: planktonic P. aeruginosa; experiment: Minimum inhibitory concentration (MIC) of an agent alone; type: cell-based; details: Pseudomonas aeruginosa, strain PAK grown aerobically
Procedure: MD3 and secondary antibiotics were tested at 4× their minimum inhibitory concentration (MIC) alone. For example, the MICMD3 against P. aeruginosa strain PAK grown aerobically is 31.25 μg/ml, and the MICTOB is 3.125 μg/ml; thus, the highest concentrations tested in the checkerboard assay were 125 µg/ml MD3 and 12.5 μg/ml TOB. MD3 and antibiotics were tested across a 7-point range of 2-fold concentration, as detailed in Table 3.
as §5, with “Finally, 100 μl of 5×10^5 CFU/ml bacterial culture was added to each well.” left out

[10] = test system: P. aeruginosa biofilms; experiment: Eradication of P. aeruginosa biofilms (MBEC assay); type: cell-based, Pseudomonas aeruginosa; details: aerobic and anaerobic biofilms; treated 18-24 hours
Procedure: The minimum biofilm eradication concentration (MBEC) of MD3 was determined for P. aeruginosa biofilms grown under aerobic and anaerobic conditions. The MBEC is defined as a 3-log reduction in biofilm-associated CFUs. Biofilms were generated using the MBEC Assay™ growth device (Innovotech; Edmonton, Alberta, Canada) in cation-adjusted Mueller-Hinton broth (CAMHB) at 37° C. for 24 hours and treated with MD3 or tobramycin for an additional 18-24 hours. Remaining biofilms were disrupted by sonication and plated to determine the surviving CFU/mL following a single treatment.

[11] = 24 hours, antifungal combined with MD3
[12] = 48 hours, antifungal combined with MD3

Compound: NCC[C@H](O)C(=O)N[C@@H]1C[C@H](N)[C@@H](O[C@H]2O[C@H](CN)[C@@H](O)[C@H](O)[C@H]2O)[C@H](O)[C@H]1O[C@H]1O[C@H](CO)[C@@H](O)[C@H](N)[C@H]1O [AMK, Amikacin]
- Lowest FICI, rep 1 [1]: 0.56
- Lowest FICI, rep 1 [2]: 0.56
- Lowest FICI, rep 1 [3]: 0.75
- Lowest FICI, rep 1 [4]: 0.56
- Lowest FICI, rep 2 [4]: 0.56

Compound: C[C@H]1[C@H](NC(=O)/C(=N\OC(C)(C)C(=O)O)c2csc(N)n2)C(=O)N1S(=O)(=O)O [ATM, Aztreonam]
- Lowest FICI, rep 1 ([5]; Aerobic): 0.31
- Lowest FICI, rep 2 ([5]; Aerobic): 0.31
- Lowest FICI, rep 1 ([5]; Anaerobic): 0.56

Compound: C[C@@H]1[C@H](O)[C@@H](C)/C=C/C=C/C=C/C=C/C=C/C=C/C=C/[C@H](O[C@@H]2O[C@H](C)[C@@H](O)[C@H](N)[C@@H]2O)C[C@@H]2O[C@](O)(C[C@@H](O)C[C@@H](O)[C@H](O)CC[C@@H](O)C[C@@H](O)CC(=O)O[C@H]1C)C[C@H](O)[C@H]2C(=O)O [Amphotericin B, amphotericin B]
- Interaction (at 24 hours) [6]: Additive
- Lowest FICI (at 24 hours) [6]: 0.625
- Interaction (at 48 hours) [6]: Additive
- Lowest FICI (at 48 hours) [6]: 0.5625

Compound: CC(C)(O/N=C(\C(=O)N[C@@H]1C(=O)N2C(C(=O)[O-])=C(C[n+]3ccccc3)CS[C@H]12)c1csc(N)n1)C(=O)O [CAZ, ceftazidime]
- Lowest FICI, rep 1 ([5]; Aerobic): 0.38
- Lowest FICI, rep 2 ([5]; Aerobic): 0.31
- Lowest FICI, rep 1 ([5]; Anaerobic): 0.50

Compound: O=C(O)c1cn(C2CC2)c2cc(N3CCNCC3)c(F)cc2c1=O [CIP, Ciprofloxacin]
- Lowest FICI, rep 1 ([5]; Aerobic): 0.56
- Lowest FICI, rep 2 ([5]; Aerobic): 0.31
- Lowest FICI, rep 3 ([5]; Aerobic): 0.56
- Lowest FICI, rep 1 ([5]; Anaerobic): 0.56

Compound: CC[C@H]1OC(=O)[C@H](C)[C@@H](O[C@H]2C[C@@](C)(OC)[C@@H](O)[C@H](C)O2)[C@H](C)[C@@H](O[C@@H]2O[C@H](C)C[C@H](N(C)C)[C@H]2O)[C@](C)(OC)C[C@@H](C)C(=O)[C@H](C)[C@@H](O)[C@]1(C)O [CLR, Clarithromycin]
- Lowest FICI, rep 1 [3]: 1.00
- Lowest FICI, rep 1 [4]: 0.56
- Lowest FICI, rep 2 [4]: 1.00

Compound: O=C([O-])CC(O)(CC(=O)[O-])C(=O)[O-].[Ga+3] [GaCi, Gallium citrate]
- Lowest FICI, rep 1 ([5]; Aerobic): 0.38
- Lowest FICI, rep 2 ([5]; Aerobic): 0.38
- Lowest FICI, rep 3 ([5]; Aerobic): 0.25
- Lowest FICI, rep 1 [1]: 0.56
- Lowest FICI, rep 1 [2]: 0.56
- Interaction of MD3 with the antibiotic (FICI classification) [7]: synergistic (FICI values of ≤0.5 are considered synergistic)
- Lowest FICI, rep 1 ([7]; combined with MD3): 0.25
- Lowest FICI, rep 2 ([7]; combined with MD3): 0.19

Compound: CCC(C)n1ncn(-c2ccc(N3CCN(c4ccc(OCC5COC(Cn6cncn6)(c6ccc(Cl)cc6Cl)O5)cc4)CC3)cc2)c1=O (stereo not shown) [Itraconazole, itraconazole]
- Lowest FICI (at 24 hours) [8, 11]: 0.625
- Lowest FICI (at 48 hours) [8, 12]: 0.5625

Compound: C[C@@H](O)[C@H]1C(=O)N2C(C(=O)O)=C(S[C@@H]3CN[C@H](C(=O)N(C)C)C3)[C@H](C)[C@H]12 [MER, Meropenem]
- Lowest FICI, rep 1 ([5]; Aerobic): 0.53
- Lowest FICI, rep 2 ([5]; Aerobic): 0.56
- Lowest FICI, rep 1 ([5]; Anaerobic): 0.56

Compound: NC[C@H]1O[C@H](O[C@H]2[C@H](O)[C@@H](O[C@H]3O[C@H](CO)[C@@H](O)[C@H](N)[C@H]3O)[C@H](N)C[C@@H]2N)[C@H](N)C[C@@H]1O [TOB, Tobramycin]
- Lowest FICI, rep 1 ([5]; Aerobic): 0.56
- Lowest FICI, rep 2 ([5]; Aerobic): 0.63
- Lowest FICI, rep 3 ([5]; Aerobic): 0.56
- Lowest FICI, rep 1 ([5]; Anaerobic): 0.56
- Interaction of MD3 with the antibiotic (FICI classification) [7]: indifferent (values of greater than 1 to 4 are indifferent)
- Lowest FICI, rep 1 ([7]; combined with MD3): 1.03
- MIC [9]: 3.12 µg/mL
- Biofilm eradication (MBEC, 3-log reduction in biofilm-associated CFUs) [10]: only effective against aerobic biofilms

Compound: C[C@@H](c1ncncc1F)[C@](O)(Cn1cncn1)c1ccc(F)cc1F [Voriconazole, voriconazole]
- Interaction (at 24 hours) [8, 11]: Additive
- Lowest FICI (at 24 hours) [8, 11]: 0.625
- Interaction (at 48 hours) [8, 12]: Additive
- Lowest FICI (at 48 hours) [8, 12]: 0.313
- Interaction of MD3 with the antifungal (summary) ([8]; time point not separated): at least additive
- Interaction (at 24 hours) [6]: Additive
- Lowest FICI (at 24 hours) [6]: 0.375
- Interaction (at 48 hours) [6]: Additive
- Lowest FICI (at 48 hours) [6]: 0.5625
- Interaction of MD3 with the antifungal (summary) ([6]; time point not separated): at least additive

Compound: Colistin [CST]
- Lowest FICI, rep 1 ([5]; Aerobic): 0.56
- Lowest FICI, rep 2 ([5]; Aerobic): 0.38
- Lowest FICI, rep 1 ([5]; Anaerobic): 0.56

Compound: Gentamicin
- Lowest FICI, rep 1 ([5]; Aerobic): 1.06
- Interaction of MD3 with the antibiotic (FICI classification) ([5]; aerobic conditions): indifferent (values of greater than 1 to 4 are indifferent)
